Measured values as given in ChEMBL document CHEMBL5614378, “Novel compounds with dual inhibition activity against SARS-CoV-2 critical enzymes RdRp and human TMPRSS2” (Eur J Med Chem, 2024).
The source made the active and inactive calls. The rule behind the calls is not given here.

Legend:
[1] = biological target: Replicase polyprotein 1ab (Severe acute respiratory syndrome coronavirus 2, UniProt P0DTD1); test: Inhibition of SARS-CoV-2 recombinant RdRp preincubated with enzyme for 15 mins followed by single stranded polyribonucleotide template and NTPs addition and measured after 2 hrs by fluorescence spectrometric analysis
SARS-CoV-2 [2] = assay type: functional, Vero E6; details: Severe acute respiratory syndrome coronavirus 2, Vero C1008, 72 h, time 3 day
SARS-CoV-2 [3] = assay type: functional, Vero E6; details: for inhibition at 10 µg/mL: Severe acute respiratory syndrome coronavirus 2, Vero C1008, 96 h, time 4 day
SARS-CoV-2 [4] = assay type: functional, Vero E6; details: for inhibition at 10 µg/mL: Severe acute respiratory syndrome coronavirus 2, Vero C1008, 72 h, time 3 day
[5] = biological target: Replicase polyprotein 1ab (Severe acute respiratory syndrome coronavirus 2) (UniProt P0DTD1); test: Inhibition of SARS-CoV-2 recombinant RdRp at 50 ug/ml preincubated with enzyme for 15 mins followed by single stranded polyribonucleotide template and NTPs addition and measured after 2 hrs by fluorescence spectrometric analysis relative to control; details: dose 50.0 µg/ml, time 135.0 min
SARS-CoV-2 [6] = test: microbe, parasite or virus in culture; details: Severe acute respiratory syndrome coronavirus 2, NRC-03-nhCoV, Vero C1008, 72 h
Description: Anti-SARS-CoV-2 activity against SARS-CoV-2 NRC-03-nhCoV infected in African green monkey Vero E6 cells assessed as inhibition of viral replication incubated for 72 hrs by crystal violet staining based analysis

in vitro = details: monkey, Vero E6 cells
Description: Selectivity index, ratio of CC50 for cytotoxicity against African green monkey Vero E6 cells to IC50 for anti-SARS-CoV-2 activity against SARS-CoV-2 NRC-03-nhCoV infected in African green monkey Vero E6 cells

[7] = Cytotoxicity against human Calu-3 cells; assay type: toxicity, cell-based
SARS-CoV-2 [8] = assay type: functional; details: Severe acute respiratory syndrome coronavirus 2, Calu-3, 96 h; dose 30 nM; time 4 day
SARS-CoV-2 [9] = assay type: functional; details: Severe acute respiratory syndrome coronavirus 2, Calu-3, 96 h; dose 15 nM; time 4 day
SARS-CoV-2 [10] = test: microbe, parasite or virus in culture; details: Severe acute respiratory syndrome coronavirus 2, NRC-03-nhCoV, Calu-3, 72 h
Description: Anti-SARS-CoV-2 activity against SARS-CoV-2 NRC-03-nhCoV infected in human Calu-3 cells expressing TMPRSS2 assessed as inhibition of viral replication incubated for 72 hrs by crystal violet staining based analysis

Row | SMILES | IC50 [1] [nM] | inhibition at 10 µg/mL (SARS-CoV-2 [2]) [%] | inhibition [5] [%] | IC50 (SARS-CoV-2 [6]) [nM] | selectivity ratio (in vitro) | also measured
1 | N#C[C@@]1(c2ccc3c(NC(=O)c4ccc(NC(=N)N)cc4)ncnn23)O[C@H](CO)[C@@H](O)[C@H]1O | 6.1 | 66 | 91.5 | 3.9 |  | inhibition at 10 µg/mL (SARS-CoV-2 [3]): 44%; inhibition at 10 µg/mL (SARS-CoV-2 [4]): 51.4%
2 | N#C[C@@]1(c2ccc3c(NC(=O)c4ccc(Nc5ncccn5)cc4)ncnn23)O[C@H](CO)[C@@H](O)[C@H]1O | 32.4 | 51.3 | 77 | 19.7 | 2.64 | inhibition (SARS-CoV-2 [3]; Severe acute respiratory syndrome coronavirus 2, Vero E6, dose 10.0 µg/ml, time 4.0 day): inactive; inhibition (SARS-CoV-2 [4]; Severe acute respiratory syndrome coronavirus 2, Vero E6, dose 10.0 µg/ml, time 3.0 day): inactive
3 | CN(C)C(=O)COC(=O)Cc1ccc(OC(=O)c2ccc(NC(=N)N)cc2)cc1 [CAMOSTAT] |  |  |  |  |  | CC50 [7]: 230 nM; inhibition at 0.03 µM (SARS-CoV-2 [8]): 80%; inhibition at 0.015 µM (SARS-CoV-2 [9]): 70%; IC50 (SARS-CoV-2 [10]): 8.21 nM
4 | N=C(N)Nc1ccc(C(=O)Nc2ncnc3[nH]cnc23)cc1 |  |  |  | 22.8 | 1 | 
5 | CCC(CC)COC(=O)[C@H](C)N[P@](=O)(OC[C@H]1O[C@@](C#N)(c2ccc3c(N)ncnn23)[C@H](O)[C@@H]1O)Oc1ccccc1 [REMDESIVIR] |  |  | 73 | 55.6 | 3.02 | 
6 | O=C(Nc1ccn(C2OC(CO)C(O)C2O)c(=O)n1)c1ccc(Nc2ncccn2)cc1 (stereo unspecified) |  |  |  | 52 | 7.18 | 
7 | CC(C)c1cc(=O)oc2ccc(OC(=O)c3ccc(NC(=N)N)cc3)cc12 | 4.42 | 63.2 | 89 | 5.7 |  | CC50 [7]: 450 nM; inhibition at 0.03 µM (SARS-CoV-2 [8]): 60%; inhibition at 0.015 µM (SARS-CoV-2 [9]): 45%; inhibition at 10 µg/mL (SARS-CoV-2 [3]): 65%; inhibition at 10 µg/mL (SARS-CoV-2 [4]): 90.5%; IC50 (SARS-CoV-2 [10]): 17.5 nM
8 | CC(C)(C)OC(=O)Nc1ccc(C(=O)Nc2ncnn3c([C@]4(C#N)O[C@H](CO)[C@@H](O)[C@H]4O)ccc23)cc1 |  |  |  | 42.2 | 6.65 | 
